In one experiment the target is T1, DNA-PK (Homo sapiens, UniProt P78527).
T1 construct: purchased Invitrogen PR9107A
As to the kind of experiment: DNA-PK Assay for Biochemical Enzymatic Inhibition (ADP Glo Kinase assay). As to conditions: DNA-PK enzyme. On the procedure:
A biochemical assay was performed to identify IC50 values against DNA-PK activity in a two-step reaction with a kinase reaction followed by ADP Glo™ Kinase assay Kit (Promega V9102).
Three-fold serial dilutions of compounds in DMSO were prepared in kinase assay buffer (50 mM HEPES pH 7.5, 20 mM MgCl2, 100 mM KCl, 50 μM DTT, 10 μg/ml calf thymus DNA, 0.01% Tween 20). Kinase assay buffer was used to prepare compound treatments to 0.02% DMSO (dimethyl sulphoxide) content. DMSO controls were prepared to produce a maximum and minimum luminescence signal for normalization. Substrate (Anaspec, AS-60210-5) and ATP (Promega V9102) and ATP mix was prepared by dilution in kinase assay buffer for 434.4 μM and 64.4 μM final assay concentrations, respectively. Compounds and control were added to 25 ng DNA-PK enzyme (Invitrogen, PR9107A) diluted in kinase buffer in assay plate (Corning 267459) and incubated for 15 minutes at room temperature prior to addition of substrate and ATP mix.
Throughout the assay, each time a reagent was added to the microplate, it was centrifuged for 1 minute at 1300 rcf. All reagents were added, and incubations carried out at room temperature. The reaction was then incubated for 60 minutes. ADP-ATP standards at 0, 4, 10, 40, 80, and 100% ADP (prepared as specified in the ADP Glo™ Kinase assay kit) were also added to the microplate at a volume equal to the total kinase reaction. The ADP Glo™ Kinase Assay kit was then used to quantify DNA-PK activity: following the 60-minute incubation, a 1:1 volume of ADP Glo reagent was added to all wells, then following a further 45-minute incubation, a 1:1 volume of Kinase Detection Reagent was added to all wells. After this two-step assay, plates were incubated in a Synergy-Neo2 plate reader for 30 minutes with gentle shaking, followed by endpoint luminescent read Luminescence data was normalized by subtracting the background signal and expressing all background-adjusted values as a percentage of the average maximum signal. The data was then expressed as percent inhibition by subtracting from 100% (i.e. maximum luminescent signal will be 0% inhibition) and the resulting data plotted against ten concentration points on a logarithmic scale, using GraphPad Prism. Non-linear regression analysis was performed on each concentration response curve and the log [inhibitor] vs response—variable slope (four parameters) equation was selected to generate IC50 values.

Experiment [1] has as its target T2, DNA-PK phosphorylation at Serine 2056 (Homo sapiens, UniProt P78527).
T2 construct: FaDu cells were purchased from ATCC; host or cells: FaDu
Put plainly: Cellular Assay for Inhibition of DNA-PK Phosphorylation at Serine 2056 in FaDu cells (sandwich ELISA, neocarzinostatin). Format: cell-based. Particulars: pSer2056 DNA-PK. A digest of the protocol: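 FaDu cells pre-treated with compound (0.3% DMSO) for 1 h, then neocarzinostatin 1 μg/mL final added for 2 h to induce DSBs. Protein-normalised lysates read by sandwich ELISA for total and pSer2056 DNA-PK; % inhibition normalised between DMSO and NCS controls, IC50 from variable-slope log(inhibitor) fit.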

For experiment [2], the system named is pDNA-PK induction in HCT116 tumour spheroids. As to the kind of experiment: Multicellular tumour spheroid + radiation, pDNA-PK (ser2056) inhibition, immunohistochemical endpoint, HCT116. In kind it is cell-based. As to conditions: 20 Gy, 20% O2. On the procedure: Multicellular tumour spheroids determination of compound inhibition of pDNA-PK induction following radiation. Tumour spheroids were grown to approximately 0.5 mm in diameter and irradiated with 20 Gy in combination with inhibitor test compounds to determine their potency. Inhibitor concentration for 50% reduction in pDNA-PK induction (IC50) was determined via immunohistochemical staining in spheroid cryosections taken 2 hours following radiation.
Spheroid+radiation pDNA-PK. Radiation: 20 Gy. Drug: serial dilution 5 or 10 μM down to 3.5 nM (11 wells). Spheroids: 3-6 spheroids per well (300-500 μm diameter). 20% 02 and 5% CO2. 96 well plate format.
Protocol: pre-incubate 1 hours with drug, irradiate with 20 Gy, post-incubate 2 hours with drug, freeze and cryosection ×3 replicates.
Endpoint: fluorescent immunostin pDNA-PK ser2056 and image on microscope.
Analysis: determine EC50 concentration that decreases pDNA-PK induction by 50% after radiation.
Multicellular tumour spheroids determination of compound inhibition of pDNA-PK induction following radiation. Tumour spheroids were grown to approximately 0.5 mm in diameter and irradiated with 20 Gy in combination with inhibitor test compounds to determine their potency. Inhibitor concentration for 50% reduction in pDNA-PK induction (IC50) was determined via immunohistochemical staining in spheroid cryosections taken 2 hours following radiation. For cell survival endpoint 8 Gy radiation was used and 3 hours following radiation spheroids were dissociated, counted and plated for colony forming endpoint.
Spheroid+radiation pDNA-PK. Radiation: 20 Gy. Drug: serial dilution 5 or 10 μM down to 3.5 nM (11 wells). Spheroids: 3-6 spheroids per well (300-500 μm diameter). 20% 02 and 5% CO2. 96 well plate format. Endpoint: fluorescent immunostain pDNA-PK ser2056 and image on microscope. Analysis: determine EC50 concentrations that decreases pDNA-PK induction by 50% after irradiation.
Multicellular tumour spheroids were used to determine potency of test compounds in a 3D tissue environment using inhibition of pDNA-PK induction following radiation or cell survival as the endpoint. For the pDNA-PK endpoint HCT116 or FaDU tumour spheroids were grown to approximately 0.5 mm in diameter and irradiated with 20 Gy in combination with inhibitor test compounds to determine their potency. Experiments were carried out in 96 well plates containing 0.7 mls of MEM media containing 10% FBS and 10 mM glucose under 20% O2 & 5% CO2 at 37° C. Following dilution of compounds 1:1000 from DMSO stocks, compounds were serially diluted from 10 μM down to 3.5 nM and 5-10 spheroids added. 96 well plates were constantly stirred to avoid spheroids settling during the course of the experiment. The inhibitor concentration for 50% reduction in pDNA-PK induction (EC50) was determined via immunohistochemical staining in spheroid cryosections taken 2 hours following radiation using anti-pDNA-PK (ser 2056) and fixed immediately in formalin following sectioning. For cell survival endpoint 8 Gy radiation was used and, 3 hours following radiation, spheroids were dissociated, counted and plated for colony forming endpoint. Data presented in the table compound potency as EC50 [μM].

Experiment [3] concerns pH2AX induction in HCT116 ATM-/- multicellular tumour spheroids. Put plainly: Prodrug Radiation Sensitization in Multicellular Tumour Spheroids, inhibition of pH2AX induction following radiation. Format: cell-based. Summed up:
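HCT116 and FaDu spheroids (~0.5 mm diameter), ATM-deficient lines included, in MEM/10% FBS/10 mM glucose at 37 °C under 20% vs 5% oxygen with stirring. Prodrugs 10 μM down to 3.5 nM, 20 Gy irradiation. pDNA-PK (ser 2056) or pH2AX (ser 139) scored in formalin-fixed cryosections 1 or 2 h post-radiation.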

[4] abbreviates: neocarzinostatin 1 μg/mL, Table 1.
Where [5] appears, read: 2 hours following radiation, Example 9 Study 2, read-out: Spheroid Cell line: HCT116 Immunohistochemical endpoint pDNA-PK inhibition EC50.
Where [6] appears, read: Spheroid, Cell Line: HCT115 (so in the source), 2 hours following radiation, Example 7, read-out: EC50, Immunohistochemical endpoint, pDNA-PK inhibition.
Setting [7] is: spheroids, Example 8, read-out: Cell line: HCT116 Immunohistochemical endpoint pDNA-PK inhibition EC50.

The text below walks through data of US20240239790A1, “7-Morpholino-1,6-Naphthyridin-5-yl Derivatives and Pharmaceutical Compositions Thereof Useful as DNA-PK Inhibitor” (adMare Therapeutics Society, priority 2021, published 2024).

Like-named read-outs stand apart in the source and are kept apart here.

As usually defined, the IC50 is the concentration that inhibits the measured activity by half. A word on the EC50: it is the midpoint of the concentration-response curve.

Regarding “5-(((1s,4s)-4-(1H-imidazol-1-yl)cyclohexyl)oxy)-7-morpholino-N-propyl-1,6-naphthyridine-3-carboxamide [Compound 169]”, the IC50 was 0.01 to 0.15 µM at DNA-PK (Table 1) and 1 to 10 µM in experiment [1] (setting [4]). The EC50 in experiment [2] (setting [5]), in experiment [2] (setting [6]) and in experiment [2] (setting [7]) was 10 to 100 µM in each case.
Take `Cn1cc([C@H]2CC[C@@H](Oc3nc(N4CCOCC4)cc4ncc(OCCN5CCOCC5)cc34)CC2)cn1` [Compound 6, 4-(5-(((1s,4s)-4-(1-methyl-1H-pyrazol-4-yl)cyclohexyl)oxy)-3-(2-morpholinoethoxy)-1,6-naphthyridin-7-yl)morpholine]: the IC50 fell in the range of 0.01 to 0.15 µM at DNA-PK (Table 1) and 0.1 to 1 µM in experiment [1] (setting [4]).
Turning to `N=C(N)N[C@H]1CC[C@@H](Oc2nc(N3CCOCC3)cc3ncccc23)CC1` [Compound 16, 1-((1s,4s)-4-((7-morpholino-1,6-naphthyridin-5-yl)oxy)cyclohexyl)guanidine], the values for the IC50 (on DNA-PK (Table 1); in experiment [1] (setting [4])) were 0.001 to 0.01 µM and 1 to 10 µM, respectively. The half-maximal effective concentration (EC50) in experiment [2] (setting [5]), in experiment [2] (setting [6]) and in experiment [2] (setting [7]) was 10 to 100 µM each time.
Consider `CN(C)C(=O)COc1ccc(N[C@H]2CC[C@@H](Oc3nc(N4CCOCC4)cc4ncccc34)CC2)nn1` [Compound 57, N,N-dimethyl-2-((6-(((1s,4s)-4-((7-morpholino-1,6-naphthyridin-5-yl)oxy)cyclohexyl)amino)pyridazin-3-yl)oxy)acetamide], for which the values for the IC50 (at DNA-PK (Table 1); in experiment [1] (setting [4])) were 0.01 to 0.15 µM and 10 to 30 µM, respectively.
The corresponding values for `COCC(=O)N[C@H]1CC[C@@H](Oc2nc(N3CCOCC3)cc3ncccc23)CC1` [Compound 105, 2-Methoxy-N-((1s,4s)-4-((7-morpholino-1,6-naphthyridin-5-yl)oxy)cyclohexyl)acetamide] are 0.001 to 0.01 µM and 0.1 to 1 µM.
The corresponding values for `N#CCC(=O)N[C@H]1CC[C@@H](Oc2nc(N3CCOCC3)cc3ncccc23)CC1` [Compound 107, 2-Cyano-N-((1s,4s)-4-((7-morpholino-1,6-naphthyridin-5-yl)oxy)cyclohexyl)acetamide] are 0.001 to 0.01 µM and 0.1 to 1 µM.
On the same counts, the results for `CCOC(=O)c1cnc2cc(N3CCOCC3)nc(O[C@H]3CC[C@@H](n4ccnc4)CC3)c2c1` [Compound 163, ethyl 5-(((1s,4s)-4-(1H-imidazol-1-yl)cyclohexyl)oxy)-7-morpholino-1,6-naphthyridine-3-carboxylate] are 0.01 to 0.15 µM and 1 to 10 µM.
Regarding `CN(C)C(=O)c1cnc2cc(N3CCOCC3)nc(O[C@H]3CC[C@@H](n4ccnc4)CC3)c2c1` [Compound 170, 5-(((1s,4s)-4-(1H-imidazol-1-yl)cyclohexyl)oxy)-N,N-dimethyl-7-morpholino-1,6-naphthyridine-3-carboxamide], the IC50 on DNA-PK (Table 1) lay within 0.01 to 0.15 µM.
Take `O=S(=O)(Nc1cnc2cc(N3CCOCC3)nc(O[C@H]3CC[C@@H](Nc4ncccn4)CC3)c2c1)C1CCCC1` [Compound 190, N-(7-morpholino-5-(((1s,4s)-4-(pyrimidin-2-ylamino)cyclohexyl)oxy)-1,6-naphthyridin-3-yl)cyclopentanesulfonamide]: the concentration for half-maximal inhibition (IC50) on DNA-PK (Table 1) lay within 0.01 to 0.15 µM. The EC50 fell in the range of 10 to 100 µM in experiment [2] (Homo sapiens, HCT-116, 2 hours following radiation, Example 9 Study 2, read-out: Spheroid Cell line: HCT116 Immunohistochemical endpoint pDNA-PK inhibition EC50) and 10 to 100 µM in experiment [2] (Homo sapiens, HCT-116, Spheroid, Cell Line: HCT115 (so in the source), 2 hours following radiation, Example 7, read-out: EC50, Immunohistochemical endpoint, pDNA-PK inhibition).
For `CN(C)C(=O)COc1cnc(NC2CCC(Oc3nc(N4CCOCC4)cc4ncc(N(Cc5ncc([N+](=O)[O-])n5C)S(C)(=O)=O)cc34)CC2)nc1` (centres unmarked) [LFA013, N,N-Dimethyl-2-[2-[[4-[[3-[(1-methyl-5-nitro-imidazol-2-yl)methyl-methylsulfonyl-amino]-7-morpholino-1,6-naphthyridin-5-yl]oxy]cyclohexyl]amino]pyrimidin-5-yl]oxy-acetamide], the concentration for half-maximal inhibition (IC50) at DNA-PK (Table 2) fell in the range of 0.01 to 0.15 µM; in experiment [1] (Table 2), 1 to 10 µM. Besides, the 50% effective concentration (EC50) was 0.01 to 0.5 µM in experiment [3] (20 Gy, 5% O2, inner layers, read-out: Prodrug 5% O2 Inner layers EC50); 1 to 10 µM in experiment [3] (20 Gy, 5% O2, outer layers, read-out: Prodrug 5% O2 Outer layers EC50); 1 to 10 µM in experiment [3] (20 Gy, 20% O2, outer layers, read-out: Prodrug 20% O2 Outer layers EC50); 0.01 to 0.5 µM in experiment [3] (value of the (unnamed) effector of the listed prodrug, 20 Gy, 5% O2, inner layers, read-out: Effector 5% O2 Inner layers EC50).
As to `Cn1c(COC(=O)Nc2cnc3cc(N4CCOCC4)nc(O[C@H]4CC[C@@H](Nc5ncccn5)CC4)c3c2)cnc1[N+](=O)[O-]` [LFA108, (3-methyl-2-nitro-imidazol-4-yl)methyl N-[7-morpholino-5-[4-(pyrimidin-2-ylamino)cyclohexoxy]-1,6-naphthyridin-3-yl]carbamate], the IC50 lay in the range of 0.01 to 0.15 µM on DNA-PK (Table 2) and 10 to 30 µM in experiment [1] (Table 2). The half-maximal effective concentration (EC50) in experiment [3] (Homo sapiens, HCT-116, 20 Gy, 5% O2, inner layers, read-out: Prodrug 5% O2 Inner layers EC50) fell in the range of 0.01 to 0.5 µM; in experiment [3] (Homo sapiens, HCT-116, 20 Gy, 5% O2, outer layers, read-out: Prodrug 5% O2 Outer layers EC50), 0.5 to 1 µM; in experiment [3] (Homo sapiens, HCT-116, 20 Gy, 20% O2, outer layers, read-out: Prodrug 20% O2 Outer layers EC50), 1 to 10 µM.
